Laboratory results: ChEMBL document CHEMBL1649565, “Besifloxacin, a novel fluoroquinolone, has broad-spectrum in vitro activity against aerobic and anaerobic bacteria” (Antimicrob Agents Chemother, 2009)
The source made the active and inactive calls.

How the values were obtained:
[1] = system: Staphylococcus aureus; experiment: Antibacterial activity against ciprofloxacin-susceptible and methicillin-resistant Staphylococcus aureus by CLSI M100-S18 method; assay type: functional
[2] = system: Staphylococcus aureus; experiment: Antibacterial activity against non-ciprofloxacin-susceptible and methicillin-susceptible Staphylococcus aureus by CLSI M100-S18 method; assay type: functional
[3] = system: Staphylococcus epidermidis; experiment: Antibacterial activity against ciprofloxacin-susceptible and methicillin-resistant Staphylococcus epidermidis by CLSI M100-S18 method; assay type: functional
[4] = system: Staphylococcus epidermidis; experiment: Antibacterial activity against non-ciprofloxacin-susceptible and methicillin-susceptible Staphylococcus epidermidis by CLSI M100-S18 method; assay type: functional
[5] = system: Staphylococcus haemolyticus; experiment: Antibacterial activity against Staphylococcus haemolyticus by CLSI M100-S18 method; assay type: functional
[6] = system: Staphylococcus hominis; experiment: Antibacterial activity against Staphylococcus hominis by CLSI M100-S18 method; assay type: functional
[7] = system: Staphylococcus lugdunensis; experiment: Antibacterial activity against Staphylococcus lugdunensis by CLSI M100-S18 method; assay type: functional
[8] = system: Staphylococcus saprophyticus; experiment: Antibacterial activity against Staphylococcus saprophyticus by CLSI M100-S18 method; assay type: functional
[9] = system: Staphylococcus warneri; experiment: Antibacterial activity against Staphylococcus warneri by CLSI M100-S18 method; assay type: functional
[10] = system: Streptococcus agalactiae; experiment: Antibacterial activity against Streptococcus agalactiae by CLSI M100-S18 method; assay type: functional
[11] = Antibacterial activity against Lancefield Streptococcus sp. 'group C' by CLSI M100-S18 method; assay type: functional
[12] = system: Streptococcus sp.; experiment: Antibacterial activity against Lancefield Streptococcus sp. group F by CLSI M100-S18 method; assay type: functional
[13] = Antibacterial activity against Lancefield Streptococcus sp. 'group G' by CLSI M100-S18 method; assay type: functional
[14] = system: Streptococcus pyogenes; experiment: Antibacterial activity against Streptococcus pyogenes by CLSI M100-S18 method; assay type: functional
[15] = system: Streptococcus anginosus; experiment: Antibacterial activity against Streptococcus anginosus by CLSI M100-S18 method; assay type: functional
[16] = system: Streptococcus equinus; experiment: Antibacterial activity against Streptococcus bovis by CLSI M100-S18 method; assay type: functional
[17] = system: Streptococcus constellatus; experiment: Antibacterial activity against Streptococcus constellatus by CLSI M100-S18 method; assay type: functional
[18] = system: Streptococcus intermedius; experiment: Antibacterial activity against Streptococcus intermedius by CLSI M100-S18 method; assay type: functional
[19] = system: Streptococcus mitis; experiment: Antibacterial activity against Streptococcus mitis by CLSI M100-S18 method; assay type: functional
[20] = system: Streptococcus oralis; experiment: Antibacterial activity against Streptococcus oralis by CLSI M100-S18 method; assay type: functional
[21] = system: Streptococcus salivarius; experiment: Antibacterial activity against Streptococcus salivarius by CLSI M100-S18 method; assay type: functional
[22] = system: Streptococcus sanguinis; experiment: Antibacterial activity against Streptococcus sanguinis by CLSI M100-S18 method; assay type: functional
[23] = system: Citrobacter koseri; experiment: Antibacterial activity against Citrobacter koseri by CLSI M7-A7 method; assay type: functional
[24] = system: Klebsiella oxytoca; experiment: Antibacterial activity against Klebsiella oxytoca by CLSI M7-A7 method; assay type: functional
[25] = system: Legionella pneumophila; experiment: Antibacterial activity against Legionella pneumophila by CLSI M7-A7 method; assay type: functional
[26] = system: Moraxella catarrhalis; experiment: Antibacterial activity against Moraxella catarrhalis by CLSI M7-A7 method; assay type: functional
[27] = system: Morganella morganii; experiment: Antibacterial activity against Morganella morganii by CLSI M7-A7 method; assay type: functional
[28] = system: Bacteroides fragilis; experiment: Antibacterial activity against Bacteroides fragilis by CLSI M11-A7 method; assay type: functional
[29] = system: Clostridium perfringens; experiment: Antibacterial activity against Clostridium perfringens by CLSI M11-A7 method; assay type: functional
[30] = system: Fusobacterium sp.; experiment: Antibacterial activity against Fusobacterium sp. by CLSI M11-A7 method; assay type: functional
[31] = system: Peptostreptococcus sp.; experiment: Antibacterial activity against Peptostreptococcus sp. by CLSI M11-A7 method; assay type: functional
[32] = system: Prevotella sp.; experiment: Antibacterial activity against Prevotella sp. by CLSI M11-A7 method; assay type: functional
[33] = system: Cutibacterium acnes; experiment: Antibacterial activity against Propionibacterium acnes by CLSI M11-A7 method; assay type: functional
[34] = system: Bacteroides fragilis; experiment: Antibacterial activity against Bacteroides fragilis assessed as percent susceptible isolates by CLSI M11-A7 method; assay type: functional
[35] = system: Fusobacterium sp.; experiment: Antibacterial activity against Fusobacterium sp. assessed as percent susceptible isolates by CLSI M11-A7 method; assay type: functional
[36] = system: Peptostreptococcus sp.; experiment: Antibacterial activity against Peptostreptococcus sp. assessed as percent susceptible isolates by CLSI M11-A7 method; assay type: functional
[37] = system: Prevotella sp.; experiment: Antibacterial activity against Prevotella sp. assessed as percent susceptible isolates by CLSI M11-A7 method; assay type: functional
[38] = system: Cutibacterium acnes; experiment: Antibacterial activity against Propionibacterium acnes assessed as percent susceptible isolates by CLSI M11-A7 method; assay type: functional
[39] = system: Staphylococcus aureus; experiment: Antibacterial activity against ciprofloxacin-susceptible and methicillin-resistant Staphylococcus aureus assessed as percent susceptible isolates by CLSI M100-S18 method; assay type: functional
[40] = system: Staphylococcus aureus; experiment: Antibacterial activity against non-ciprofloxacin-susceptible and methicillin-susceptible Staphylococcus aureus assessed as percent susceptible isolates by CLSI M100-S18 method; assay type: functional
[41] = system: Staphylococcus epidermidis; experiment: Antibacterial activity against ciprofloxacin-susceptible and methicillin-resistant Staphylococcus epidermidis assessed as percent susceptible isolates by CLSI M100-S18 method; assay type: functional
[42] = system: Staphylococcus epidermidis; experiment: Antibacterial activity against non-ciprofloxacin-susceptible and methicillin-susceptible Staphylococcus epidermidis assessed as percent susceptible isolates by CLSI M100-S18 method; assay type: functional
[43] = system: Staphylococcus haemolyticus; experiment: Antibacterial activity against Staphylococcus haemolyticus assessed as percent susceptible isolates by CLSI M100-S18 method; assay type: functional
[44] = system: Staphylococcus hominis; experiment: Antibacterial activity against Staphylococcus hominis assessed as percent susceptible isolates by CLSI M100-S18 method; assay type: functional
[45] = system: Staphylococcus lugdunensis; experiment: Antibacterial activity against Staphylococcus lugdunensis assessed as percent susceptible isolates by CLSI M100-S18 method; assay type: functional
[46] = system: Staphylococcus saprophyticus; experiment: Antibacterial activity against Staphylococcus saprophyticus assessed as percent susceptible isolates by CLSI M100-S18 method; assay type: functional
[47] = system: Staphylococcus warneri; experiment: Antibacterial activity against Staphylococcus warneri assessed as percent susceptible isolates by CLSI M100-S18 method; assay type: functional
[48] = system: Streptococcus agalactiae; experiment: Antibacterial activity against Streptococcus agalactiae assessed as percent susceptible isolates by CLSI M100-S18 method; assay type: functional
[49] = Antibacterial activity against Lancefield Streptococcus sp. 'group C' assessed as percent susceptible isolates by CLSI M100-S18 method; assay type: functional
[50] = system: Streptococcus sp.; experiment: Antibacterial activity against Lancefield Streptococcus sp. group F assessed as percent susceptible isolates by CLSI M100-S18 method; assay type: functional
[51] = Antibacterial activity against Lancefield Streptococcus sp. 'group G' assessed as percent susceptible isolates by CLSI M100-S18 method; assay type: functional
[52] = system: Streptococcus pyogenes; experiment: Antibacterial activity against Streptococcus pyogenes assessed as percent susceptible isolates by CLSI M100-S18 method; assay type: functional
[53] = system: Citrobacter koseri; experiment: Antibacterial activity against Citrobacter koseri assessed as percent susceptible isolates by CLSI M7-A7 method; assay type: functional
[54] = system: Klebsiella oxytoca; experiment: Antibacterial activity against Klebsiella oxytoca assessed as percent susceptible isolates by CLSI M7-A7 method; assay type: functional
[55] = system: Morganella morganii; experiment: Antibacterial activity against Morganella morganii assessed as percent susceptible isolates by CLSI M7-A7 method; assay type: functional
[56] = system: Staphylococcus epidermidis
[57] = system: Staphylococcus epidermidis; remark: listed apart in the source
[58] = system: Clostridium perfringens

COc1c(N2CCNC(C)C2)c(F)cc2c(=O)c(C(=O)O)cn(C3CC3)c12 (stereo not given) [GATIFLOXACIN]
60%: Activity [45]
100%: Activity [48] | Activity [49] | Activity [50] | Activity [51]
64.4%: Activity [43]
4 µg/mL: MIC50 [2] | MIC90 [6] | MIC90 [9] | MIC90 [28] | MIC90 [30] | MIC90 [31]
88.9%: Activity [41]
inactive: Activity [34] | Activity [35] | Activity [36] | Activity [37] | Activity [38] | MIC90 [56] | MIC90 [57] | Activity [58]
94.7%: Activity [39]
≤ 0.015 µg/mL: MIC [11] | MIC50 [11] | MIC [12] | MIC50 [12] | MIC [13] | MIC50 [13]
<=0.015%: Activity [52]
16 µg/mL: MIC90 [32]
8 µg/mL: MIC90 [5] | MIC50 [32]
1 µg/mL: MIC [4] | MIC50 [4] | MIC50 [6] | MIC90 [16] | MIC90 [17] | MIC90 [18] | MIC90 [19] | MIC90 [20] | MIC90 [21] | MIC90 [22] | MIC50 [25] | MIC50 [29] | MIC90 [29] | MIC50 [30]
0.12 µg/mL: MIC50 [7] | MIC50 [8] | MIC50 [9] | MIC50 [14] | MIC90 [23] | MIC50 [27]
0.25 µg/mL: MIC90 [1] | MIC90 [8] | MIC90 [14] | MIC50 [15] | MIC50 [26] | MIC90 [26] | MIC [33] | MIC50 [33]
32%: Activity [44]
90.2%: Activity [55]
0.03 µg/mL: MIC50 [10] | MIC50 [24]
86%: Activity [47]
> 8 µg/mL: MIC90 [2] | MIC90 [27]
54.5%: Activity [40]
83.3%: Activity [42]
96%: Activity [54]
0.5 µg/mL: MIC90 [15] | MIC90 [24] | MIC90 [33]
0.06 µg/mL: MIC50 [1] | MIC [3] | MIC50 [3] | MIC90 [10] | MIC90 [11] | MIC90 [12] | MIC90 [13] | MIC50 [16] | MIC50 [17] | MIC50 [18] | MIC50 [19] | MIC50 [20] | MIC50 [21] | MIC50 [22]
99%: Activity [46] | Activity [53]
0.015 µg/mL: MIC50 [23]
2 µg/mL: MIC50 [5] | MIC90 [7] | MIC90 [25] | MIC50 [28] | MIC50 [31]
